Structures are written as SMILES. Where a name gives a salt, the structure may show the parent alone.

Data on 25 compounds can be found in publication PMC12155096 (International Journal of Molecular Sciences, 2025).

Targets include human CYP2D6 (Homo sapiens, UniProt P10635); human CYP2C9 (Homo sapiens, UniProt P11712); CYP3A4 (Homo sapiens, UniProt P08684); human CYP2C19 (Homo sapiens, UniProt P33261).
Another data set addresses T1, human CYP1A2 (Homo sapiens, UniProt P05177).
T1 sequence (P05177 1-516): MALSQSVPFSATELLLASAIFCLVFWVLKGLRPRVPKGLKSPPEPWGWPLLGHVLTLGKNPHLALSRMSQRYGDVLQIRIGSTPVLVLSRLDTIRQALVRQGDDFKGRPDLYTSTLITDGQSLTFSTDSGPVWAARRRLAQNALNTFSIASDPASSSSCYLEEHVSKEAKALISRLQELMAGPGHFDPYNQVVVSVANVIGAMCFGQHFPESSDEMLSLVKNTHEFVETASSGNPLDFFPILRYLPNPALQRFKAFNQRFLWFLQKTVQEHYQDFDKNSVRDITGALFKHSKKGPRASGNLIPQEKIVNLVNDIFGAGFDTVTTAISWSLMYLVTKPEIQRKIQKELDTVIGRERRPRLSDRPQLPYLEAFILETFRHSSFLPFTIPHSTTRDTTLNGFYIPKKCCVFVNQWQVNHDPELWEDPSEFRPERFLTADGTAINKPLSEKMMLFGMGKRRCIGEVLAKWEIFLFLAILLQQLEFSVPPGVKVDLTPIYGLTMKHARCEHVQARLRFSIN

Chain of CYP3A4 (P08684 whole entry): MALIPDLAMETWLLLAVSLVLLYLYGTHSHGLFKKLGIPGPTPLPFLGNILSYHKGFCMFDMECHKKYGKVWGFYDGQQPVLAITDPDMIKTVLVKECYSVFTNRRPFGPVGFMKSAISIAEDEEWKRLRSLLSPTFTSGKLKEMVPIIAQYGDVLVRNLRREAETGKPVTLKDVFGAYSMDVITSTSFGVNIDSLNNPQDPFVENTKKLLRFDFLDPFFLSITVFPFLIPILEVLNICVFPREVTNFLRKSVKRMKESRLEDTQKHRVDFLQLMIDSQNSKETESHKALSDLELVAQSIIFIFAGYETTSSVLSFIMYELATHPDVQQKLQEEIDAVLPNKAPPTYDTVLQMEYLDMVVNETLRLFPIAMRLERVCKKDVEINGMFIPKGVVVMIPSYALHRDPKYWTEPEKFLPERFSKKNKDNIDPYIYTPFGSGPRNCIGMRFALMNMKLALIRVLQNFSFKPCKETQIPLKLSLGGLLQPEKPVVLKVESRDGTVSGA
Chain of human CYP2C19 (P33261 whole entry): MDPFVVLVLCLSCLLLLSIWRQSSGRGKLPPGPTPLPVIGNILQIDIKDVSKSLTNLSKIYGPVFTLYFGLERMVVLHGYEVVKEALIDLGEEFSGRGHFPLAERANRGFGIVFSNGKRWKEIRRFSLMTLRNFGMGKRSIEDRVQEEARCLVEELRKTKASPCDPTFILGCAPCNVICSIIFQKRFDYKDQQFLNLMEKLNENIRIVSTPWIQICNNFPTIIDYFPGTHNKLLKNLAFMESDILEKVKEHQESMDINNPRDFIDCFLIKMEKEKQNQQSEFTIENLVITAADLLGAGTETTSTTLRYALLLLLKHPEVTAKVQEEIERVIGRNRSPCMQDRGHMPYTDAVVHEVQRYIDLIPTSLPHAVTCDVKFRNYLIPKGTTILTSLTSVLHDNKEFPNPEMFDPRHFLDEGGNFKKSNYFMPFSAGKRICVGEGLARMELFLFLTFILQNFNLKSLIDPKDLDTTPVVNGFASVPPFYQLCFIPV
Chain of human CYP2C9 (P11712 whole entry): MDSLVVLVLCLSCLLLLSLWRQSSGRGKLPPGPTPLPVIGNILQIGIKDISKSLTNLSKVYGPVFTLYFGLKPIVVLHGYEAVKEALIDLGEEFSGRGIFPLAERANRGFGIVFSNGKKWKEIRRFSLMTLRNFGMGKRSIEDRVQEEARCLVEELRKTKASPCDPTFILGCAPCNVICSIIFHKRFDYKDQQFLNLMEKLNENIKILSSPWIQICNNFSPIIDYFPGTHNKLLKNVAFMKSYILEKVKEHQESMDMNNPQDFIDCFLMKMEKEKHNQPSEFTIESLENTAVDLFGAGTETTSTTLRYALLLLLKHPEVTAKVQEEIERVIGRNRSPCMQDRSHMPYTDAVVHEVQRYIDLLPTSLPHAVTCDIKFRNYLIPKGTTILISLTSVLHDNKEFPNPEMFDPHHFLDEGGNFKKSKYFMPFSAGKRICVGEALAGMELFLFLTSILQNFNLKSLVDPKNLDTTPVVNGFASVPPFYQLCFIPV
Chain of human CYP2D6 (P10635 whole entry): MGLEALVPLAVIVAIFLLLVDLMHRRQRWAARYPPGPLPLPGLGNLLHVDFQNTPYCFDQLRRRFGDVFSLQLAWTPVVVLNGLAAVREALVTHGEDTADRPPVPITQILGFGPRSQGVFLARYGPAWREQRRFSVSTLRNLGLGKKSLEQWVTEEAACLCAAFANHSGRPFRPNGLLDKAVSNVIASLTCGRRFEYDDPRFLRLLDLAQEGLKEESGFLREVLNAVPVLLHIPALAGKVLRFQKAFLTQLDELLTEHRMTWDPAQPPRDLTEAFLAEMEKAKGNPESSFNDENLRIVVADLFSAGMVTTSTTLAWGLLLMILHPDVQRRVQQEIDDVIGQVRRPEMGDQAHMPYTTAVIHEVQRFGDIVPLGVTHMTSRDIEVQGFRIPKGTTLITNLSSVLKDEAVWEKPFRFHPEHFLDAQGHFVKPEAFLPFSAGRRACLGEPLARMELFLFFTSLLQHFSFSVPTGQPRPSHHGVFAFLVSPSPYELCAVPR

For the compound `O=C(O)c1cc(Br)c(O)c(Br)c1` [3,5-Dibromo-4-hydroxybenzoic acid], at human CYP2D6, the “CYP2D6 AC50 (half-maximal activity concentration)” value (“CYP2D6 AC50” below) is on record as “Inconclusive inhibitor”. Further, the AC50 (usually the midpoint of the concentration-response curve, whichever way the signal moves) at human CYP2C9 worked out at 68.4 µM; at human CYP1A2, 35.7 µM; at CYP3A4 it was 35.7 µM; on human CYP2C19 it was 23.8 µM.

On to `O=C(Cl)c1cc(Cl)cc(Cl)c1` [3,5-Dichlorobenzoyl chloride], for which the “CYP2D6 AC50” value at human CYP2D6 is recorded as “Inactive”. The “CYP2C9 AC50 (half-maximal activity concentration)” value (from here on “CYP2C9 AC50”) on human CYP2C9 is listed as “Inconclusive inhibitor”. At human CYP1A2, the “CYP1A2 AC50 (half-maximal activity concentration)” value (from here on “CYP1A2 AC50”) is listed as “Inactive”. On CYP3A4, this compound showed an AC50 of 50.2 µM. Besides, the “CYP2C19 AC50 (half-maximal activity concentration)” value (from here on “CYP2C19 AC50”) on human CYP2C19 is listed as “Inconclusive inhibitor”.

For `OCC(CBr)(CBr)CBr` [3-Bromo-2,2-bis(bromomethyl)propanol], the “CYP2D6 AC50” value at human CYP2D6 is “Inactive”. The AC50 at human CYP2C9 was 40.5 µM; on human CYP2C19, 38.3 µM. The “CYP1A2 AC50” value on human CYP1A2 is on record as “Inactive”. The “CYP3A4 AC50 (half-maximal activity concentration)” value (shortened to “CYP3A4 AC50”) on CYP3A4 was “Inactive”.

`O=C(Cl)c1ccc(F)c(Cl)c1` [3-Chloro-4-fluorobenzoyl chloride]: the “CYP2D6 AC50” value on human CYP2D6 is listed as “Inconclusive inhibitor”. On human CYP2C9, the “CYP2C9 AC50” value is reported as “Inactive”. The “CYP1A2 AC50” value on human CYP1A2 is listed as “Inactive”. The same compound came in with an AC50 at CYP3A4 of 55.5 µM. At human CYP2C19, the “CYP2C19 AC50” value is listed as “Inconclusive inhibitor”.

For the compound `O=C(c1ccccc1)c1cccc(O)c1` [3-Hydroxybenzophenone], the half-maximal activity concentration (AC50) is 54.1 µM on human CYP2D6, 3.99 µM on human CYP2C9, 36.2 µM at human CYP1A2 and 23.9 µM on human CYP2C19. Moreover, the “CYP3A4 AC50” value at CYP3A4 is “Inactive”.

For `OCc1cccc(Oc2ccccc2)c1` [3-Phenoxybenzenemethanol], at human CYP2D6, the “CYP2D6 AC50” value was “Inconclusive inhibitor”. Besides, the AC50 on human CYP2C9 was 55.8 µM; on human CYP1A2, 38.5 µM; on CYP3A4, 64.4 µM; at human CYP2C19, 24.7 µM.

For `O=C(C=Cc1ccccc1)OCCCc1ccccc1` [3-Phenylpropyl cinnamate], the “CYP2D6 AC50” value on human CYP2D6 is “Inactive”. Also, the AC50 amounted to 19.4 µM at human CYP2C9, 12.2 µM at human CYP1A2, 25.2 µM at CYP3A4 and 30.1 µM at human CYP2C19.

In the case of `CCCCCCCCCCCSCC(=O)O` [3-Thiatetradecanoic acid], the values for the AC50 on human CYP2D6, at human CYP2C9 and on CYP3A4 were 20.6 µM, 45.2 µM and 87.3 µM, respectively. In addition, the “CYP1A2 AC50” value on human CYP1A2 was “Inconclusive inhibitor”. Also, the “CYP2C19 AC50” value at human CYP2C19 is “Inconclusive inhibitor”.

Take `Nc1ccc([N+](=O)[O-])c(C(F)(F)F)c1` [3-Trifluoromethyl-4-nitroanilide]: the “CYP2D6 AC50” value on human CYP2D6 is reported as “Inactive”. Besides, the results for the AC50 on human CYP2C9, at human CYP1A2 and at human CYP2C19 were 39.1 µM, 8.83 µM and 12.9 µM, respectively. For the same compound, the “CYP3A4 AC50” value at CYP3A4 is “Inactive”.

`CC(C)(C)c1ccc(C(=O)CCCCl)cc1` [4'-Tert-butyl-4-chlorobutyrophenone]: the “CYP2D6 AC50” value at human CYP2D6 was “Inactive”. Moreover, the “CYP2C9 AC50” value on human CYP2C9 is listed as “Inactive”. The values for the AC50 at human CYP1A2 and at CYP3A4 were 12 µM and 21.9 µM, respectively. The “CYP2C19 AC50” value on human CYP2C19 is listed as “Inactive”.

For `O=C(Nc1ccc([N+](=O)[O-])cc1)Nc1ccc([N+](=O)[O-])cc1` [4,4'-Dinitrodiphenylurea], on human CYP2D6, the “CYP2D6 AC50” value is reported as “Inactive”. The “CYP2C9 AC50” value at human CYP2C9 is recorded as “Inactive”. In addition, the “CYP1A2 AC50” value on human CYP1A2 is reported as “Inactive”. The same compound returned an AC50 at CYP3A4 of 11 µM. For the same compound, the “CYP2C19 AC50” value at human CYP2C19 is reported as “Inactive”.

Consider `CCC(C)(C)C1CCC(O)CC1` (centres unmarked) [4-(2-Methylbutan-2-yl)cyclohexanol], for which the “CYP2D6 AC50” value on human CYP2D6 is “Inactive”. For the same compound, the “CYP2C9 AC50” value on human CYP2C9 is “Inactive”. In addition, the “CYP1A2 AC50” value at human CYP1A2 was “Inconclusive inhibitor”. On CYP3A4, this compound gave an AC50 of 9.66 µM. For the same compound, the “CYP2C19 AC50” value at human CYP2C19 was “Inactive”.

Turning to `CCN(CC)c1ccc(C=O)c(O)c1` [4-(Diethylamino)salicylaldehyde], the “CYP2D6 AC50” value on human CYP2D6 is given as “Inactive”. The figures for the AC50 on human CYP2C9, at human CYP1A2 and at human CYP2C19 were 22.8 µM, 16.4 µM and 50.6 µM, respectively. Further, the “CYP3A4 AC50” value on CYP3A4 is “Inactive”.

For the compound `CC(C)CC(O)Cc1ccccc1` (centres unmarked) [4-Methyl-1-phenyl-2-pentanol], at human CYP2D6, the “CYP2D6 AC50” value was “Inactive”. Also, at human CYP2C9, the “CYP2C9 AC50” value was “Inconclusive inhibitor”. The AC50 on human CYP1A2 was 37 µM; at CYP3A4, 34.3 µM; on human CYP2C19, 37 µM.

As to `O=C1OC(=O)c2cc(Oc3ccc4c(c3)C(=O)OC4=O)ccc21` [5,5'-Oxybis(2-benzofuran-1,3-dione)], on human CYP2D6, the “CYP2D6 AC50” value was “Inactive”. At human CYP2C9, the “CYP2C9 AC50” value is “Inactive”. Further, the “CYP1A2 AC50” value at human CYP1A2 is listed as “Inactive”. Besides, the AC50 at CYP3A4 was found to be 30.8 µM. For the same compound, at human CYP2C19, the “CYP2C19 AC50” value is listed as “Inconclusive inhibitor”.

As for `CCc1cnc(C(=O)O)c(C(=O)O)c1` [5-Ethyl-2,3-pyridinedicarboxylic acid], the “CYP2D6 AC50” value at human CYP2D6 is “Inconclusive inhibitor”. For the same compound, the “CYP2C9 AC50” value at human CYP2C9 is “Inactive”. For the same compound, the “CYP1A2 AC50” value at human CYP1A2 is recorded as “Inactive”. On CYP3A4, the concentration at half-maximal activity (AC50) turned out to be 20.6 µM. Also, the “CYP2C19 AC50” value at human CYP2C19 is “Inactive”.

With `Cc1ccc([N+](=O)[O-])c(N)c1` [5-Methyl-2-nitroaniline], the “CYP2D6 AC50” value on human CYP2D6 is “Inactive”. Further, the AC50 worked out at 49.9 µM on human CYP2C9, 19.2 µM at human CYP1A2, 13.9 µM at CYP3A4 and 39.6 µM at human CYP2C19.

With `O=C(O)c1cc(C(=O)O)cc([N+](=O)[O-])c1` [5-Nitroisophthalic acid], the “CYP2D6 AC50” value at human CYP2D6 was “Inactive”. The “CYP2C9 AC50” value on human CYP2C9 was “Inactive”. Moreover, the “CYP1A2 AC50” value at human CYP1A2 was “Inconclusive inhibitor”. On CYP3A4, this compound registered an AC50 of 5.59 µM. At human CYP2C19, the “CYP2C19 AC50” value is listed as “Inconclusive activator”.

Turning to `CC(C)c1ccc2ncccc2c1` [6-(1-Methylethyl)quinoline], the “CYP2D6 AC50” value at human CYP2D6 is on record as “Inactive”. For the same compound, the “CYP2C9 AC50” value at human CYP2C9 is on record as “Inactive”. Moreover, the results for the AC50 on human CYP1A2 and at CYP3A4 were 46.2 µM and 35 µM, respectively. For the same compound, at human CYP2C19, the “CYP2C19 AC50” value is on record as “Inactive”.

With `CCN(CC)c1ccc2c(C)cc(=O)oc2c1` [7-Diethylamino-4-methylcoumarin], the AC50 at human CYP2D6 stood at 58.5 µM; on human CYP2C9 it was 4.6 µM; at human CYP1A2 it was 1.9 µM; on CYP3A4, 32.4 µM; on human CYP2C19, 36 µM.

For the compound `N#CCc1ccc(Cl)cc1Cl` [(2,4-Dichlorophenyl)acetonitrile], the “CYP2D6 AC50” value at human CYP2D6 is “Inactive”. Besides, at human CYP2C9, the “CYP2C9 AC50” value is “Inactive”. The results for the AC50 at human CYP1A2, at CYP3A4 and on human CYP2C19 were 23.4 µM, 13.3 µM and 50.4 µM, respectively.

Consider `CCCCCC[C@@H](CCC)C(=O)O` [(2R)-2-Propyloctanoic acid], for which, at human CYP2D6, the “CYP2D6 AC50” value is on record as “Inactive”. The AC50 at human CYP2C9 came to 34.7 µM; at CYP3A4, 31 µM. At human CYP1A2, the “CYP1A2 AC50” value is reported as “Inactive”. Also, the “CYP2C19 AC50” value on human CYP2C19 is on record as “Inconclusive activator”.

As to `CCOC(=O)CC(CC(=O)OCC)(OC(C)=O)C(=O)OCC` [Acetyltriethyl citrate], the “CYP2D6 AC50” value on human CYP2D6 is reported as “Inactive”. Moreover, the AC50 on human CYP2C9 is 30.6 µM; on CYP3A4 it was 43.5 µM; at human CYP2C19, 18.1 µM. Moreover, the “CYP1A2 AC50” value on human CYP1A2 is “Inconclusive inhibitor”.

`CCCCCCCCCCCCCCCCC(C(=O)O)C(O)(CC(=O)O)C(=O)O` (centres unmarked) [Agaric acid]: the “CYP2D6 AC50” value at human CYP2D6 is on record as “Inconclusive inhibitor”. In addition, the “CYP2C9 AC50” value on human CYP2C9 is on record as “Inactive”. Besides, at human CYP1A2, the “CYP1A2 AC50” value is listed as “Inactive”. On CYP3A4, this compound displayed an AC50 of 32.4 µM. Further, on human CYP2C19, the “CYP2C19 AC50” value is “Inconclusive activator”.

Take `CC1(C)[C@@H](O[C@H]2O[C@H](C(=O)O)[C@@H](O)[C@H](O)[C@H]2O[C@@H]2O[C@H](C(=O)O)[C@@H](O)[C@H](O)[C@H]2O)CC[C@]2(C)[C@H]3C(=O)C=C4[C@@H]5C[C@@](C)(C(=O)O)CC[C@]5(C)CC[C@@]4(C)[C@]3(C)CC[C@@H]12.N.O.O.O` [Ammonium glycyrrhizinate trihydrate]: at human CYP2D6, the “CYP2D6 AC50” value was “Inactive”. Moreover, the “CYP2C9 AC50” value at human CYP2C9 is on record as “Inactive”. For the same compound, the “CYP1A2 AC50” value at human CYP1A2 is “Inconclusive inhibitor”. Also, at CYP3A4, the activity was half-maximal at 23.5 µM (AC50). For the same compound, the “CYP2C19 AC50” value at human CYP2C19 was “Inconclusive inhibitor”.
